“And” between values parts separate entries of the source, which are not always exact repeats. Equal entries are not always repeated. Inconclusive results and toxic doses are left out. No stated cut-off is given here; in the data, active means T/C of 150% or more; inactive means T/C below 125%.
Test system: L1210 leukemia ip in BDF1 mice, survival T/C
Assay: NCI In Vivo Anticancer Drug Screen. Data for tumor model L1210 Leukemia (intraperitoneal) in B6D2F1 (BDF1) mice
Conditions: endpoint: mean survival time, higher = longer survival
How it was run: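 Transplanted-tumor mice were given test agent; controls received vehicle only. Survival readings from the two groups were divided (treated over control).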

[1] = dose: 100.0 mg/kg/injection, schedule: Q01DX009 (ip), vehicle: saline with Tween-80
[2] = dose: 100.0 mg/kg/injection, schedule: Q04DX003 (ip), vehicle: saline with Tween-80
[3] = dose: 200.0 mg/kg/injection, schedule: Q01DX009 (ip), vehicle: saline with Tween-80
[4] = dose: 200.0 mg/kg/injection, schedule: Q04DX003 (ip), vehicle: saline with Tween-80
[5] = dose: 400.0 mg/kg/injection, schedule: Q01DX009 (ip), vehicle: saline with Tween-80
[6] = dose: 400.0 mg/kg/injection, schedule: Q04DX003 (ip), vehicle: saline with Tween-80
[7] = dose: 100.0 mg/kg/injection, schedule: Q01DX001 (ip), vehicle: saline with Tween-80
[8] = dose: 200.0 mg/kg/injection, schedule: Q01DX001 (ip), vehicle: saline with Tween-80
[9] = dose: 400.0 mg/kg/injection, schedule: Q01DX001 (ip), vehicle: saline with Tween-80
[10] = dose: 100.0 mg/kg/injection, schedule: Q01DX001 (ip), vehicle: Klucel (hydroxypropylcellulose) (HPC)
[11] = dose: 200.0 mg/kg/injection, schedule: Q01DX001 (ip), vehicle: Klucel (hydroxypropylcellulose) (HPC)
[12] = dose: 400.0 mg/kg/injection, schedule: Q01DX001 (ip), vehicle: Klucel (hydroxypropylcellulose) (HPC)
[13] = dose: 100.0 mg/kg/injection, schedule: Q01DX001 (ip), vehicle: saline
[14] = dose: 200.0 mg/kg/injection, schedule: Q01DX001 (ip), vehicle: saline
[15] = dose: 400.0 mg/kg/injection, schedule: Q01DX001 (ip), vehicle: saline
[16] = dose: 100.0 mg/kg/injection, schedule: Q01DX009 (ip), vehicle: Klucel (hydroxypropylcellulose) (HPC)
[17] = dose: 100.0 mg/kg/injection, schedule: Q04DX003 (ip), vehicle: Klucel (hydroxypropylcellulose) (HPC)
[18] = dose: 200.0 mg/kg/injection, schedule: Q01DX009 (ip), vehicle: Klucel (hydroxypropylcellulose) (HPC)
[19] = dose: 200.0 mg/kg/injection, schedule: Q04DX003 (ip), vehicle: Klucel (hydroxypropylcellulose) (HPC)
[20] = dose: 25.0 mg/kg/injection, schedule: Q04DX002 (ip), vehicle: Klucel (hydroxypropylcellulose) (HPC)
[21] = dose: 50.0 mg/kg/injection, schedule: Q04DX002 (ip), vehicle: Klucel (hydroxypropylcellulose) (HPC)
[22] = dose: 100.0 mg/kg/injection, schedule: Q04DX002 (ip), vehicle: Klucel (hydroxypropylcellulose) (HPC)
[23] = dose: 400.0 mg/kg/injection, schedule: Q01DX009 (ip), vehicle: Klucel (hydroxypropylcellulose) (HPC)
[24] = dose: 400.0 mg/kg/injection, schedule: Q04DX003 (ip), vehicle: Klucel (hydroxypropylcellulose) (HPC)
[25] = dose: 200.0 mg/kg/injection, schedule: Q04DX002 (ip), vehicle: Klucel (hydroxypropylcellulose) (HPC)
[26] = dose: 12.5 mg/kg/injection, schedule: Q04DX002 (ip), vehicle: Klucel (hydroxypropylcellulose) (HPC)

Measured: T/C

O/C(=C\C(=S)S)c1ccc(Cl)cc1
inactive: dose: 0.06 mg/kg/injection, schedule: Q01DX009 (ip), vehicle: saline with Tween-80 103 % of control | dose: 0.12 mg/kg/injection, schedule: Q01DX009 (ip), vehicle: saline with Tween-80 105 % of control | dose: 0.25 mg/kg/injection, schedule: Q01DX009 (ip), vehicle: saline with Tween-80 98 % of control | dose: 0.5 mg/kg/injection, schedule: Q01DX009 (ip), vehicle: saline with Tween-80 112 % of control and 120 % of control | dose: 1.0 mg/kg/injection, schedule: Q01DX009 (ip), vehicle: saline with Tween-80 102 % of control and 107 % of control | dose: 1.0 mg/kg/injection, schedule: Q04DX003 (ip), vehicle: saline with Tween-80 103 % of control | dose: 2.0 mg/kg/injection, schedule: Q01DX009 (ip), vehicle: saline with Tween-80 107 % of control | dose: 2.0 mg/kg/injection, schedule: Q04DX003 (ip), vehicle: saline with Tween-80 97 % of control | dose: 4.0 mg/kg/injection, schedule: Q04DX003 (ip), vehicle: saline with Tween-80 97 % of control | dose: 8.0 mg/kg/injection, schedule: Q04DX003 (ip), vehicle: saline with Tween-80 105 % of control

CC(C)(C)c1ccc(OC(=S)N2CCOCC2)cc1
inactive: [1] 98 % of control | [2] 96 % of control | [3] 107 % of control | [4] 96 % of control | [5] 102 % of control | [6] 93 % of control

Cc1ccc(S(=O)(=O)N2C(=O)CCC2C(=O)O)cc1 (stereo unspecified)
inactive: [7] 100 % of control | [1] 98 % of control | [8] 96 % of control | [3] 96 % of control | [9] 97 % of control | [5] 102 % of control

O=c1[nH]c2sccc2c(=O)n1O
inactive: [10] 106 % of control | [11] 97 % of control | [12] 97 % of control

c1cncc(Nc2c3ccccc3nc3ccccc23)c1
inactive: [13] 97 % of control | [14] 99 % of control | [15] 94 % of control

CCCCCCCCCCCCNC(=O)Nc1ccc(Cl)c(Cl)c1
inactive: [13] 92 % of control | [14] 93 % of control

O=C(C[n+]1ccc2ccccc2c1)c1cccc([N+](=O)[O-])c1
inactive: [2] 105 % of control | [4] 97 % of control | [6] 100 % of control

O=C(O)C1Cc2c([nH]c3ccccc23)C(CCCCO)N1 (stereo unspecified)
inactive: dose: 100.0 mg/kg/injection, schedule: Q01DX001 (ip), vehicle: carboxymethylcellulose (CMC) 96 % of control

CC(=O)c1ccc(SC(=O)N(C)C)cc1
inactive: [2] 98 % of control | [4] 93 % of control | [6] 97 % of control

O=C(Nc1ncn[nH]1)C(Cl)(Cl)Cl
inactive: dose: 100.0 mg/kg/injection, schedule: Q04DX003 (ip), vehicle: carboxymethylcellulose (CMC) 95 % of control | dose: 200.0 mg/kg/injection, schedule: Q04DX003 (ip), vehicle: carboxymethylcellulose (CMC) 100 % of control | dose: 400.0 mg/kg/injection, schedule: Q04DX003 (ip), vehicle: carboxymethylcellulose (CMC) 97 % of control

Nc1nc2nc3c(nc2c(=O)[nH]1)C(=O)N(c1ccc(C(=O)O)cc1)C3
inactive: [13] 103 % of control | [14] 103 % of control

CCOC(=O)c1c(C)nc(C)c(C(=O)OCC)c1C
inactive: [7] 101 % of control | [8] 99 % of control | [9] 95 % of control

COC(=O)c1ccccn1
inactive: dose: 100.0 mg/kg/injection, schedule: Q04DX002 (ip), vehicle: saline with Tween-80 100 % of control | dose: 200.0 mg/kg/injection, schedule: Q04DX002 (ip), vehicle: saline with Tween-80 107 % of control

Cc1ccc(-c2cc3ccccc3[nH]2)cc1
inactive: dose: 50.0 mg/kg/injection, schedule: Q01DX009 (ip), vehicle: Klucel (hydroxypropylcellulose) (HPC) 94 % of control | [16] 89 % of control | [17] 91 % of control | [18] 86 % of control | [19] 90 % of control

ClC(Cl)=[C](Cl)[Hg][C](Cl)=C(Cl)Cl
inactive: dose: 0.39 mg/kg/injection, schedule: Q01DX009 (ip), vehicle: saline with Tween-80 96 % of control | dose: 0.78 mg/kg/injection, schedule: Q01DX009 (ip), vehicle: saline with Tween-80 97 % of control | dose: 1.56 mg/kg/injection, schedule: Q01DX009 (ip), vehicle: saline with Tween-80 93 % of control and 86 % of control

CC(C)C1NC(=O)C2CCCN2C1=O (stereo unspecified)
inactive: dose: 100.0 mg/kg/injection, schedule: Q04DX003 (ip), vehicle: saline sonified 98 % of control | dose: 200.0 mg/kg/injection, schedule: Q04DX003 (ip), vehicle: saline sonified 96 % of control | dose: 400.0 mg/kg/injection, schedule: Q04DX003 (ip), vehicle: saline sonified 97 % of control

C=CCc1ccc(OCCOCCN(C/C=C(\C)CCC=C(C)C)C/C=C(\C)CCC=C(C)C)c(OC)c1
inactive: [20] 108 % of control | [21] 96 % of control | [22] 99 % of control

CN(C)C(=O)OC(C)(C)C
inactive: dose: 100.0 mg/kg/injection, schedule: Q04DX002 (ip), vehicle: saline 97 % of control | dose: 200.0 mg/kg/injection, schedule: Q04DX002 (ip), vehicle: saline 101 % of control | dose: 400.0 mg/kg/injection, schedule: Q04DX002 (ip), vehicle: saline 97 % of control

C/C(CCO)=N\NC(N)=S
inactive: dose: 50.0 mg/kg/injection, schedule: Q01DX001 (ip), vehicle: saline 98 % of control | [13] 98 % of control | dose: 100.0 mg/kg/injection, schedule: Q04DX003 (ip), vehicle: saline 100 % of control | [14] 92 % of control | dose: 200.0 mg/kg/injection, schedule: Q04DX003 (ip), vehicle: saline 90 % of control | [15] 101 % of control | dose: 400.0 mg/kg/injection, schedule: Q04DX003 (ip), vehicle: saline 88 % of control

CCOC(=O)CC1=CCCCC1
inactive: [16] 103 % of control | [17] 102 % of control | [18] 107 % of control | [19] 96 % of control | [23] 98 % of control | [24] 86 % of control

CN(C)c1ccc2c(c1)N=Nc1cc(N(C)C)ccc1C2
inactive: [10] 87 % of control | [11] 91 % of control | [12] 87 % of control

Nc1ccc(Nc2ccccc2)cc1
inactive: [22] 100 % of control | [25] 104 % of control

CNC(=O)C1C(c2ccc(OC)cc2)C1c1ccc(OC)cc1 (stereo unspecified)
inactive: [26] 92 % of control | [20] 92 % of control | [21] 95 % of control

Cc1cc(OS(C)(=O)=O)ccc1OS(C)(=O)=O
inactive: [1] 94 % of control | [2] 98 % of control | [3] 94 % of control | [4] 94 % of control | [5] 92 % of control | [6] 98 % of control

CC1(C)OCC(C2OC(=S)OC2C2COC(C)(C)O2)O1 (stereo unspecified)
inactive: [21] 93 % of control | [22] 98 % of control | [25] 104 % of control

CCCCCC(=O)OC1(C(C)=O)CCC2C3CCC4=CC(=O)CCC4C3CCC21C (stereo unspecified)
inactive: [26] 94 % of control | [20] 90 % of control | [21] 94 % of control

CC(=O)Nc1ccc(Cc2ccc(Cl)cc2)cc1
inactive: [13] 95 % of control | [14] 98 % of control

OC(C/C(Cc1ccccc1)=N/Nc1ccccc1)(C(F)(F)F)C(F)(F)F
inactive: [16] 94 % of control | [17] 96 % of control | [18] 96 % of control | [19] 88 % of control | [23] 100 % of control | [24] 107 % of control

O=c1c2ccccc2[nH]c(=S)n1-c1cccc(C(F)(F)F)c1
inactive: [16] 100 % of control | [18] 97 % of control | [23] 96 % of control

Cn1cnc([N+](=O)[O-])c1C(N)=O
inactive: [22] 88 % of control | [25] 95 % of control | dose: 400.0 mg/kg/injection, schedule: Q04DX002 (ip), vehicle: Klucel (hydroxypropylcellulose) (HPC) 88 % of control

— PubChem BioAssay AID248 (DTP/NCI, 2004)
